Laboratory results from patent publication US11180462B2, “Microbiocidal oxadiazole derivatives” (SYNGENTA PARTICIPATIONS AG, priority 2015, dated 2021).

Legend:
[1] = system: Puccinia recondita f. Sp. Tritici; assay: Fungicidal activity against Puccinia recondita f. sp. tritici / wheat / leaf disc curative (brown rust); assay type: in vivo; conditions: foliar, 24 h, 200 ppm in the applied formulation, wheat leaf segments, curative (applied 1 day after inoculation), compared to untreated control leaf disks, read-out: disease control
How it was run: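 Curative leaf-segment test: compound diluted in water applied 1 day after spore inoculation of cv. Kanzler wheat segments on agar. Conditions 19° C, 75% RH, 12 h/12 h light cycle. Read-out: % disease control relative to untreated check, 6 to 8 days after application.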

[2] = system: Phakopsora Pachyrhizi; assay: Fungicidal activity against Phakopsora pachyrhizi / soybean / leaf disc preventative (Asian soybean rust); assay type: in vivo; conditions: foliar, 200 ppm in the applied formulation, soybean leaf disks, compared to untreated control leaf disks, read-out: disease control
How it was run: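 Preventative soybean leaf-disc test: discs on water agar sprayed with diluted formulated compound, inoculated one day later with spores on the lower surface. Held 24–36 h dark at 20°C, 75% rh, then 12 h light/day; percent disease control versus untreated discs scored 12–14 days after application.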

[3] = system: Glomerella lagenarium (Colletotrichum lagenarium); assay: Fungicidal activity against Glomerella lagenarium (Colletotrichum lagenarium) liquid culture / cucumber / preventative (anthracnose); assay type: cell-based; conditions: Colletotrichum orbiculare; 20 ppm in the applied formulation; liquid culture (PDB), growth inhibition measured photometrically after 3 to 4 days; compared to untreated control; read-out: disease control
How it was run: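 Photometric read-out of fungal growth after 2–7 days, expressed as percent antifungal activity versus untreated check. Cryo-stored conidia in PDB; compound at 20 ppm; dark, 24 °C, 96% RH.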

[4] = system: Puccinia recondita f. Sp. Tritici; assay: Fungicidal activity against Puccinia recondita f. sp. tritici / wheat / leaf disc preventative (brown rust); assay type: in vivo; conditions: foliar, 200 ppm in the applied formulation, wheat leaf segments, preventative, compared to untreated control leaf disks, read-out: disease control
How it was run: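 Compound application precedes infection: segments of wheat cv. Kanzler, sprayed at 200 ppm, are inoculated with a spore suspension after 1 day. Incubation is at 19° C. with 75% relative humidity and 12 h light/12 h darkness, and control versus untreated leaves is rated 7 to 9 days post-application.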

C=C(C)C(=O)N(Cc1ccc(-c2noc(C(F)(F)F)n2)cc1)C(C)CC (centres unmarked) [Compound 1.390, 2-methyl-N-sec-butyl-N-[[4-[5-(trifluoromethyl)-1,2,4-oxadiazol-3-yl]phenyl]methyl]-prop-2-enamide]
≥ 80%: pest or weed control at 200 ppm [1] | pest or weed control at 200 ppm [2] | inhibition of growth at 20 ppm [3] | pest or weed control at 200 ppm [4]

CON(Cc1ccc(-c2noc(C(F)(F)F)n2)cc1)C(=O)C1CCOC1 (centres unmarked) [Compound 1.29, N-methoxy-N-[[4-[5-(trifluoromethyl)-1,2,4-oxadiazol-3-yl]phenyl]methyl]-tetrahydrofuran-3-carboxamide]
≥ 80%: pest or weed control at 200 ppm [1] | pest or weed control at 200 ppm [2] | inhibition of growth at 20 ppm [3] | pest or weed control at 200 ppm [4]

CC1(C(=O)N(Cc2ccc(-c3noc(C(F)(F)F)n3)cc2)C2CC2)CC1 [Compound 1.118, N-cyclopropyl-1-methyl-N-[[4-[5-(trifluoromethyl)-1,2,4-oxadiazol-3-yl]phenyl]methyl]-cyclopropane-carboxamide]
≥ 80%: pest or weed control at 200 ppm [1] | pest or weed control at 200 ppm [2] | inhibition of growth at 20 ppm [3] | pest or weed control at 200 ppm [4]

CONC(=O)N(Cc1ccc(-c2noc(C(F)(F)F)n2)cc1)OC [Compound 3.22, 1,3-dimethoxy-1-[[4-[5-(trifluoromethyl)-1,2,4-oxadiazol-3-yl]phenyl]methyl]urea]
≥ 80%: pest or weed control at 200 ppm [1] | pest or weed control at 200 ppm [2] | inhibition of growth at 20 ppm [3] | pest or weed control at 200 ppm [4]

N#CCC(=O)N(Cc1ccc(-c2noc(C(F)(F)F)n2)cc1)CC1CC1 [Compound 1.243, 2-cyano-N-(cyclopropylmethyl)-N-[[4-[5-(trifluoromethyl)-1,2,4-oxadiazol-3-yl]phenyl]methyl]-acetamide]
≥ 80%: pest or weed control at 200 ppm [1] | pest or weed control at 200 ppm [2] | inhibition of growth at 20 ppm [3] | pest or weed control at 200 ppm [4]

O=C(C1CC1(F)F)N(Cc1ccc(-c2noc(C(F)(F)F)n2)cc1)C1CC1 (centres unmarked) [Compound 1.89, N-cyclopropyl-2,2-difluoro-N-[[4-[5-(trifluoromethyl)-1,2,4-oxadiazol-3-yl]phenyl]methyl]-cyclopropane-carboxamide]
≥ 80%: pest or weed control at 200 ppm [1] | pest or weed control at 200 ppm [2] | inhibition of growth at 20 ppm [3] | pest or weed control at 200 ppm [4]

C#CCCC(=O)N(Cc1ccc(-c2noc(C(F)(F)F)n2)cc1)C1CC1 [Compound 1.86, N-cyclopropyl-N-[[4-[5-(trifluoromethyl)-1,2,4-oxadiazol-3-yl]phenyl]methyl]-pent-4-ynamide]
≥ 80%: pest or weed control at 200 ppm [1] | pest or weed control at 200 ppm [2] | inhibition of growth at 20 ppm [3] | pest or weed control at 200 ppm [4]

COCCN(Cc1ccc(-c2noc(C(F)(F)F)n2)cc1)C(=O)C1CC1F (centres unmarked) [Compound 1.358, 2-fluoro-N-(2-methoxyethyl)-N-[[4-[5-(trifIuoromethyl)-1,2,4-oxadiazol-3-yl]phenyl]methyl]-cyclopropane-carboxamide]
≥ 80%: pest or weed control at 200 ppm [1] | pest or weed control at 200 ppm [2] | inhibition of growth at 20 ppm [3] | pest or weed control at 200 ppm [4]

C=CCNC(=O)N(Cc1ccc(-c2noc(C(F)(F)F)n2)cc1)OC [Compound 3.20, 3-allyl-1-methoxy-1-[[4-[5-(trifluoromethyl)-1,2,4-oxadiazol-3-yl]phenyl]methyl]urea]
≥ 80%: pest or weed control at 200 ppm [1] | pest or weed control at 200 ppm [2] | inhibition of growth at 20 ppm [3] | pest or weed control at 200 ppm [4]

CCNC(=O)N(Cc1ccc(-c2noc(C(F)(F)F)n2)cc1)OC [Compound 3.12, 3-ethyl-1-methoxy-1-[[4-[5-(trifluoromethyl)-1,2,4-oxadiazol-3-yl]phenyl]methyl]urea]
≥ 80%: pest or weed control at 200 ppm [1] | pest or weed control at 200 ppm [2] | inhibition of growth at 20 ppm [3] | pest or weed control at 200 ppm [4]

C=CC(=O)N(Cc1ccc(-c2noc(C(F)(F)F)n2)cc1)C(C)CC (centres unmarked) [Compound 1.387, N-sec-butyl-N-[[4-[5-(trifluoromethyl)-1,2,4-oxadiazol-3-yl]phenyl]methyl]-prop-2-enamide]
≥ 80%: pest or weed control at 200 ppm [1] | pest or weed control at 200 ppm [2] | inhibition of growth at 20 ppm [3] | pest or weed control at 200 ppm [4]

CCC(C)N(Cc1ccc(-c2noc(C(F)(F)F)n2)cc1)C(=O)CCOC (centres unmarked) [Compound 1.379, 3-methoxy-N-sec-butyl-N-[[4-[5-(trifluoromethyl)-1,2,4-oxadiazol-3-yl]phenyl]methyl]-propanamide]
≥ 80%: pest or weed control at 200 ppm [1] | pest or weed control at 200 ppm [2] | inhibition of growth at 20 ppm [3] | pest or weed control at 200 ppm [4]

CCN(Cc1ccc(-c2noc(C(F)(F)F)n2)cc1)C(=O)C1CCC1 [Compound 1.498, N-ethyl-N-[[4-[5-(trifluoromethyl)-1,2,4-oxadiazol-3-yl]phenyl]methyl]-cyclobulane-carboxamide]
≥ 80%: pest or weed control at 200 ppm [1] | pest or weed control at 200 ppm [2] | inhibition of growth at 20 ppm [3] | pest or weed control at 200 ppm [4]

COC(C)(C)C(=O)N(C)Cc1ccc(-c2noc(C(F)(F)F)n2)cc1 [Compound 1.782, 2-methoxy-N,2-dimethyl-N-[[4-[5-(trifluoromethyl)-1,2,4-oxadiazol-3-yl]phenyl]methyl]-propanamide]
≥ 80%: pest or weed control at 200 ppm [1] | pest or weed control at 200 ppm [2] | inhibition of growth at 20 ppm [3] | pest or weed control at 200 ppm [4]

CC(=O)N(Cc1ccc(-c2noc(C(F)(F)F)n2)cc1)C(C)C [Compound 1.687, N-isopropyl-N-[[4-[5-(trifluoromethyl)-1,2,4-oxadiazol-3-yl]phenyl]methyl]-acetamide]
≥ 80%: pest or weed control at 200 ppm [1] | pest or weed control at 200 ppm [2] | inhibition of growth at 20 ppm [3] | pest or weed control at 200 ppm [4]

C=CCCC(=O)N(Cc1ccc(-c2noc(C(F)(F)F)n2)cc1)OC [Compound 1.17, N-methoxy-N-[[4-[5-(trifluoromethyl)-1,2,4-oxadiazol-3-yl]phenyl]methyl]-pent-4-enamide]
≥ 80%: pest or weed control at 200 ppm [1] | pest or weed control at 200 ppm [2] | inhibition of growth at 20 ppm [3] | pest or weed control at 200 ppm [4]

CC(C)C(=O)N(Cc1ccc(-c2noc(C(F)(F)F)n2)cc1)C1CC1 [Compound 1.87, N-cyclopropyl-2-methyl-N-[[4-[5-(trifluoromethyl)-1,2,4-oxadiazol-3-yl]phenyl]methyl]-propanamide]
≥ 80%: pest or weed control at 200 ppm [1] | pest or weed control at 200 ppm [2] | inhibition of growth at 20 ppm [3] | pest or weed control at 200 ppm [4]

O=C(C1CCC1)N(Cc1ccc(-c2noc(C(F)(F)F)n2)cc1)C1COC1 [Compound 1.742, N-(oxetan-3-yl)-N-[[4-[5-(trifluoromethyl)-1,2,4-oxadiazol-3-yl]phenyl]methyl]-cyclobutane-carboxamide]
≥ 80%: pest or weed control at 200 ppm [1] | pest or weed control at 200 ppm [2] | inhibition of growth at 20 ppm [3] | pest or weed control at 200 ppm [4]

C#CCN(Cc1ccc(-c2noc(C(F)(F)F)n2)cc1)C(=O)CCOC [Compound 1.173, 3-methoxy-N-prop-2-ynyl-N-[[4-[5-(trifluoromethyl)-1,2,4-oxadiazol-3-yl]phenyl]methyl]-propanamide]
≥ 80%: pest or weed control at 200 ppm [1] | pest or weed control at 200 ppm [2] | inhibition of growth at 20 ppm [3] | pest or weed control at 200 ppm [4]

CON(Cc1ccc(-c2noc(C(F)(F)F)n2)cc1)C(=O)N(C)C [Compound 3.5, 1-methoxy-3,3-dimethyl-1-[[4-[5-(trifluoromethyl)-1,2,4-oxadiazol-3-yl]phenyl]methyl]urea]
≥ 80%: pest or weed control at 200 ppm [1] | pest or weed control at 200 ppm [2] | inhibition of growth at 20 ppm [3] | pest or weed control at 200 ppm [4]
